In test [1] the target is T1, mitochondrial calcium uniporter (MCU) (Homo sapiens, UniProt Q8NE86).
T1 sequence (Q8NE86 51-351): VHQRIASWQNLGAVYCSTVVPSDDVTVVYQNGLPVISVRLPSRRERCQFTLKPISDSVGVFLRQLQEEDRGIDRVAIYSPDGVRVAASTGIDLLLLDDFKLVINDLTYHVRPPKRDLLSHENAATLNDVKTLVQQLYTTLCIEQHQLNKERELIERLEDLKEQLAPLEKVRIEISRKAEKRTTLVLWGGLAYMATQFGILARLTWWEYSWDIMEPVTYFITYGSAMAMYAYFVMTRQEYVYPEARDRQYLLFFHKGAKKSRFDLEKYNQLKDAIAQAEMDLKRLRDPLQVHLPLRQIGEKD
The experiment in a line: mCa2+ uptake inhibition in digitonin-permeabilized HEK293T cells (Calcium Green 5N). Type of test: cell-based.

In test [2] the target is T1, mitochondrial calcium uniporter (MCU). The experiment in a line: mCa2+ uptake inhibition in digitonin-permeabilized HEK293T cells. In kind it is cell-based.

The IC50 is the concentration that gives 50% inhibition.

As for Os245, the IC50 is 5.7 ± 0.3 nM in test [1] and 90.9 ± 1.3 nM in test [2].

The values above are taken from paper PMC11301636, “Supramolecular delivery of dinuclear ruthenium and osmium MCU inhibitors” (Inorganic Chemistry Frontiers, 2024).
